Experimental data: US9884801B2, “Compounds from antrodia camphorata, method for preparing the same and use thereof” (ONENESS BIOTECH CO.,LTD., priority 2014, dated 2018)
Values after ≈ are worked out from the molar mass of the structure shown. Read-outs that look alike come from different tables or passages of the source.

Columns and labels:
Type in all cases: cell-based
[1] = system: U251 (Brain, Glioma); assay: SRB anti-proliferation assay, U251; conditions: Homo sapiens, U-251; for IC50: U251, 48 hours
Method: (§1) Various cell lines (5×10^3 cells/well) were sub-cultured onto 96-well plates and starved with serum-free medium for 48 h. Then cells were incubated in medium with 10% FBS in the absence or presence of various concentrations of AC006, AC007, AC009, and AC012 (0.1, 0.3, 1, 3, 10, and 30 μg/ml) for 48 hours. After treatment, the medium was discarded firstly. […]. In order to fix the adherent cells, 100 μl of trichloroacetic acid (10% (w/v)) were adding to each well and incubating at 4° C. for 1 hour. Then the plates were then washed with deionized water and dried in the air. Each well were added with 50 μl of Sulforhodamine B (SRB) solution (0.4% w/v in 1% acetic acid) and incubated for 5 min at room temperature. To remove unbound SRB in the plates, the plates were washed with 1% acetic acid and then air dried. The residual bound SRB was solubilized with 100 μl of 10 mM Tris base buffer (pH 10.5), and then read using a micro titer plate reader at 495 nm.

[2] = system: LN-229 (Brain, Glioma); assay: SRB anti-proliferation assay, LN-229; conditions: Homo sapiens; for IC50: LN-229, 48 hours
Method: as §1

[3] = system: PC3 (Prostate); assay: SRB anti-proliferation assay, PC3; conditions: PC3, 48 hours
Method: as §1

[4] = system: B16F10 (Melanoma); assay: SRB anti-proliferation assay, B16F10; conditions: Mus musculus, B16-F10; B16F10, 48 hours
Method: as §1

[5] = system: A549 (Lung); assay: SRB anti-proliferation assay, A549; conditions: Homo sapiens; for IC50: A549, 48 hours; for inhibition at 10 µg/mL: A549, in 10 μg/ml
Method: as §1

[6] = system: Sk-Hep-1 (Liver); assay: SRB anti-proliferation assay, Sk-Hep-1; conditions: Homo sapiens, SK-HEP1; Sk-Hep-1, 48 hours
Method: as §1

[7] = system: Huh-7 (Liver); assay: SRB anti-proliferation assay, Huh-7; conditions: Homo sapiens; for IC50: Huh-7, 48 hours; for inhibition at 0.3 µg/mL: Huh-7, in 0.3 μg/ml
Method: as §1

[8] = system: U87 (Brain, Glioma); assay: SRB anti-proliferation assay, U87; conditions: for IC50: U87, 48 hours
Method: as §1

[9] = system: HCT-116 (Colon rectal); assay: SRB anti-proliferation assay, HCT-116; conditions: Homo sapiens; for IC50: HCT-116, 48 hours; for inhibition at 0.3 µg/mL: HCT-116, in 0.3 μg/ml
Method: as §1

[10] = system: RKO (Colorectal); assay: SRB anti-proliferation assay, RKO; conditions: for inhibition at 10 µg/mL: in 10 μg/ml
Method: as §1

[11] = system: DLD-1 (Colorectal); assay: SRB anti-proliferation assay, DLD-1; conditions: for inhibition at 10 µg/mL: DLD-1, in 10 μg/ml
Method: as §1

[12] = system: SW-480 (Colon rectal); assay: SRB anti-proliferation assay, SW-480; conditions: for IC50: SW-480, 48 hours; for inhibition at 10 µg/mL: SW480, SW-480, in 10 μg/ml
Method: as §1

[13] = system: 4T-1 (Breast); assay: SRB anti-proliferation assay, 4T-1; conditions: 4T-1, 48 hours
Method: as §1

[14] = system: COLO205 (Colon); assay: SRB anti-proliferation assay, COLO205; conditions: Homo sapiens, COLO 205; COLO205, 48 hours
Method: as §1

[15] = system: NST (Colon); assay: SRB anti-proliferation assay, NST
Method: as §1

[16] = system: HT-29 (Colon); assay: SRB anti-proliferation assay, HT-29; conditions: Homo sapiens; HT-29, 48 hours
Method: as §1

[17] = system: EPCs in presence of VEGF; assay: Matrigel capillary tube formation assay; conditions: 1 μg/ml, EPC, VEGF 20 ng/ml, 16 hr; read-out: inhibit tube formation
Method: Matrigel was added to 15-well-plates (ibidi) in a total volume of 10 μl in each well. Plates were stood at 37° C. for 30 min to form a gel layer. After gel formation, EPCs (5×10^3 cells) treated with or without AC012 (0.1, 0.3, 1 μg/ml) in presence of VEGF (20 ng/ml) were applied to each well, and plates were incubated for at 37° C. 16 hr with 5% CO2. After incubation, the inverted contrast phase microscope (Nikon, Japan) was used for subject observation.

[18] = system: Endothelial progenitor cell (EPCs); assay: SRB assay, EPC cell proliferation; conditions: 48 h, read-out: inhibitory concentrations of 50% EPC cell proliferation (IC50)
Method: as §1, with “Endothelial progenitor” for “Various”, “(EPCs, 5×10^3” for “lines (5×10^3”, “of” for “of AC006, AC007, AC009, and”, “10” for “10,”, “h.” for “hours. After treatment, the medium was discarded firstly.”

[19] = Homo sapiens, DLD-1, 48 h, read-out: IC50
[20] = Homo sapiens, SW480, 48 h, read-out: IC50

| Compound | IC50 [2] [µg/mL] | IC50 [3] [µg/mL] | IC50 [4] [µg/mL] | IC50 [5] [µg/mL] | IC50 [7] [µg/mL] | IC50 [9] [µg/mL] | IC50 [11, 19] [µg/mL] | IC50 [12, 20] [µg/mL] | inhibition at 10 µg/mL [5] [%] | inhibition at 0.3 µg/mL [9] [%] | IC50 ([10]; 48 h, read-out: IC50) [µg/mL] | inhibition at 10 µg/mL [10] [%] | inhibition at 10 µg/mL ([11]; Homo sapiens) [%] | inhibition at 0.3 µg/mL [7] [%] | inhibition at 10 µg/mL ([12]; Homo sapiens) [%] | other results |
| --- | --- | --- | --- | --- | --- | --- | --- | --- | --- | --- | --- | --- | --- | --- | --- | --- |
| COC1=C(OC)[C@H](O)[C@H](C/C=C(\C)CC/C=C(\C)C/C=C/C(C)(C)O)[C@@H](C)C1=O [AC007-H1] | – | – | – | 1.69 (≈ 4.16 µM) | < 0.3 | < 0.3 | > 10 | > 10 | – | 59.5 | > 10 | 33 | 16.1 | 85.2 | 18.2 | – |
| COC1=C(OC)[C@H](O)[C@H](C/C=C(\C)CC/C=C(\C)CC/C=C(\C)CO)[C@@H](C)C1=O [AC009-H1] | – | – | – | > 10 | < 0.3 | < 0.3 | > 10 | > 10 | 40.8 | 54.4 | > 10 | 8.79 | 11 | 90.6 | 4.01 | – |
| COC1=C(OC)[C@H](O)[C@H](C/C=C(\C)CC/C=C(\C)CCCC(C)CO)[C@@H](C)C1=O (some centres unmarked) [AC012-H1] | – | – | – | 6.4 (≈ 15.7 µM) | < 0.3 | < 0.3 | > 10 | > 10 | – | 52.7 | > 10 | 17.5 | 11.8 | 91.2 | 14.8 | – |
| COC1C(=O)C(C)[C@@H](C/C=C(\C)CC/C=C(\C)CCCC(C)CO)[C@@H](O)C1(OC)OC (some centres unmarked) [AC012-H2] | – | – | – | – | – | > 10 | > 10 | > 10 | – | – | > 10 | 31.6 | 8.31 | – | 5.66 | inhibition at 10 µg/mL ([9]; HCT-116, in 10 μg/ml): 40.3% |

The next lines start with results.

| IC50 [2] [µg/mL] | IC50 [3] [µg/mL] | IC50 [4] [µg/mL] | IC50 [5] [µg/mL] | IC50 [7] [µg/mL] | IC50 [9] [µg/mL] | IC50 [11, 19] [µg/mL] | IC50 [12, 20] [µg/mL] | Compound | inhibition at 10 µg/mL [5] [%] | inhibition at 0.3 µg/mL [9] [%] | IC50 ([10]; 48 h, read-out: IC50) [µg/mL] | inhibition at 10 µg/mL [10] [%] | inhibition at 10 µg/mL ([11]; Homo sapiens) [%] | inhibition at 0.3 µg/mL [7] [%] | inhibition at 10 µg/mL ([12]; Homo sapiens) [%] | other results |
| --- | --- | --- | --- | --- | --- | --- | --- | --- | --- | --- | --- | --- | --- | --- | --- | --- |
| > 30 | 19.7 (≈ 43.9 µM) | 28.7 (≈ 64 µM) | > 10 | 0.72 (≈ 1.6 µM) | – | – | – | COC1=C(OC)[C@H](OC(C)=O)[C@H](C/C=C(\C)CC/C=C(\C)C[C@H](O)C=C(C)C)[C@@H](C)C1=O [AC006] | 12.2 | – | – | – | – | – | – | IC50 [1]: > 30 µg/mL; inhibition at 30 µg/mL ([1]; U251, in 30 μg/ml): 22.6%; inhibition at 30 µg/mL ([2]; LN-229, in 30 μg/ml): 22.6%; IC50 [6]: 26.8 µg/mL (≈ 59.7 µM); IC50 [8]: > 30 µg/mL; inhibition at 30 µg/mL ([8]; U87, in 30 μg/ml): 11.3% |
| > 25 | 22.1 (≈ 49.2 µM) | 23.4 (≈ 52.3 µM) | 3.57 (≈ 7.96 µM) | 0.88 (≈ 1.96 µM) | 0.93 (≈ 2.07 µM) | 19.7 (≈ 44 µM) | > 10 | COC1=C(OC)[C@H](OC(C)=O)[C@H](C/C=C(\C)CC/C=C(\C)C/C=C/C(C)(C)O)[C@@H](C)C1=O [AC007] | – | – | 17.6 (≈ 39.2 µM) | 29.5 | 25.6 | – | 21.5 | IC50 ([10]; 48 hours): > 10 µg/mL; inhibition at 25 µg/mL ([2]; LN-229, in 25 μg/ml): 19.1%; IC50 ([11]; DLD-1, 48 hours): > 10 µg/mL; IC50 [13]: 24.8 µg/mL (≈ 55.3 µM) |
| 19.5 (≈ 43.5 µM) | 15 (≈ 33.4 µM) | 22.4 (≈ 50 µM) | 8.08 (≈ 18 µM) | < 0.3 | 2.56 (≈ 5.71 µM) | 14.6 (≈ 32.6 µM) | 18.6 (≈ 41.4 µM) | COC1=C(OC)[C@H](OC(C)=O)[C@H](C/C=C(\C)CC/C=C(\C)CC/C=C(\C)CO)[C@@H](C)C1=O [AC009] | – | – | 15.9 (≈ 35.5 µM) | 33.2 | 8.75 | 88.2 | 7.98 | IC50 ([10]; 48 hours): > 10 µg/mL; IC50 [14]: 2.45 µg/mL (≈ 5.46 µM); IC50 ([11]; DLD-1, 48 hours): > 10 µg/mL; IC50 ([15]; 48 hours): > 25 µg/mL; inhibition at 25 µg/mL ([15]; in 25 μg/ml): 44.4%; IC50 [16]: 33.2 µg/mL (≈ 74.1 µM); IC50 [12]: > 10 µg/mL |
| – | – | – | – | – | 2.43 (≈ 5.59 µM) | > 10 | > 10 | COC1=C(OC)[C@H](OC(C)=O)[C@H](C/C=C(\C)CC/C=C(\C)C/C=C/C(C)(C)O)CC1=O [AC011] | – | – | > 10 | 24.1 | 7.57 | – | 31.6 | – |
| 19.4 (≈ 43.2 µM) | 11.4 (≈ 25.2 µM) | 9.16 (≈ 20.3 µM) | > 10 | < 0.3 | 2.29 (≈ 5.08 µM) | > 10 | > 10 | COC1=C(OC)[C@H](OC(C)=O)[C@H](C/C=C(\C)CC/C=C(\C)CCCC(C)CO)[C@@H](C)C1=O (some centres unmarked) [AC012] | 49.5 | – | > 10 | 34.7 | 20.2 | 78.9 | 9.05 | IC50 [1]: 22.7 µg/mL (≈ 50.4 µM); inhibition at 1 µg/mL [17]: 31.9%; IC50 [6]: 8.27 µg/mL (≈ 18.4 µM); IC50 [8]: 18.6 µg/mL (≈ 41.3 µM); IC50 [18]: 29 µg/mL (≈ 64.4 µM) |
